We go through 14 compounds from patent US10703765B2 (priority 2014, dated 2020).

SMILES strings stand for the structures. Structures can show the parent of a compound that is named as a salt.

For one test, the target named is human σ1 receptor (Homo sapiens, UniProt Q99720). The experiment in a line: biochemical. In kind it is binding. Also noted: μ and σ1 dual binding: key to the marks not given beside the values.
human σ1 receptor, sequence (Q99720 whole entry): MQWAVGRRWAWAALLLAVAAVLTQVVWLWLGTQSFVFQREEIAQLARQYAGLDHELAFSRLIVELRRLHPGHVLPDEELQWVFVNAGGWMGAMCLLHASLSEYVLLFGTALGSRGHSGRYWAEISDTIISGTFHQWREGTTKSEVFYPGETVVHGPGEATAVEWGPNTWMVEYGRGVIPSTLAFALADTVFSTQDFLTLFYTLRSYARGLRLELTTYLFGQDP
Conditions: not given
`CC1OC2(CCN(CCc3cccc(NS(C)(=O)=O)c3)CC2)CN(c2ccccc2)C1=O` (centres unmarked) [Example 256, N-(3-(2-(2-methyl-3-oxo-4-phenyl-1-oxa-4,9-diazaspiro[5.5]undecan-9-yl)ethyl)phenyl)methanesulfonamide]: the Ki is < 500 nM.
Take `CC1OC2(CCN(CCc3ccccc3)CC2)CN(c2cccc(C#N)c2)C1=O.Cl` (centres unmarked) [Example 198, 3-(2-methyl-3-oxo-9-phenethyl-1-oxa-4,9-diazaspiro[5.5]undecan-4-yl)benzonitrile hydrochloride]: the “μ and σ1 dual binding” value is reported as “++”.
As for `Cc1ncsc1CCN1CCC2(CC1)CN(c1ccccc1)C(=O)C(C)O2` (centres unmarked) [Example 61, 2-methyl-9-(2-(4-methylthiazol-5-yl)ethyl)-4-phenyl-1-oxa-4,9-diazaspiro[5.5]undecan-3-one hydrochloride], the Ki is < 500 nM.
The same measure, in the same setting: under `C[C@@H]1OC2(CCN(C[C@H](O)c3ccccc3)CC2)CN(c2ccccc2)C1=O` [Example 151d, (S)-9-((R)-2-hydroxy-2-phenylethyl)-2-methyl-4-phenyl-1-oxa-4,9-diazaspiro[5.5]undecan-3-one] stands < 500 nM; under `CC1OC2(CCN(CCc3nccs3)CC2)CN(c2ccccc2)C1=O` (centres unmarked) [Example 95, 2-methyl-4-phenyl-9-(2-(thiazol-2-yl)ethyl)-1-oxa-4,9-diazaspiro[5.5]undecan-3-one hydrochloride], < 500 nM.

The same test, now with this note: combined class from Ki-σ1 (human σ1 receptor, A1) and Ki-μ (human μ-opioid receptor, A2) radioligand binding.
For `COc1cccc(N2CC3(CCN(CCc4ccccc4)CC3)OCC2=O)c1` [Example 8, 4-(3-methoxyphenyl)-9-phenethyl-1-oxa-4,9-diazaspiro[5.5]undecan-3-one], the “μ and σ1 dual binding” value is given as “++”.
As to `CC1OC2(CCN(CCc3ccnc(N)c3)CC2)CN(c2ccccc2)C1=O` (centres unmarked) [Example 32, 9-(2-(2-aminopyridin-4-yl)ethyl)-2-methyl-4-phenyl-1-oxa-4,9-diazaspiro[5.5]undecan-3-one], the “μ and σ1 dual binding” value is reported as “++”.

Staying with this test, now noted: read-out: μ and σ1 dual binding.
On to `O=C1COC2(CCN(CCc3cccc([N+](=O)[O-])c3)CC2)CN1Cc1ccc(C(F)(F)F)cn1` [Example 103, 9-(3-nitrophenethyl)-4-((5-(trifluoromethyl)pyridin-2-yl)methyl)-1-oxa-4,9-diazaspiro[5.5]undecan-3-one], for which the Ki was > 500 nM.
Turning to `Nc1cccc(CN2CC3(CCN(CCc4ccccc4)CC3)OCC2=O)n1` [Example 104, 4-((6-aminopyridin-2-yl)methyl)-9-phenethyl-1-oxa-4,9-diazaspiro[5.5]undecan-3-one], the Ki is > 500 nM.
With `CC1OC2(CCN(CCc3ccc(N)nc3)CC2)CN(c2ccccc2)C1=O` (centres unmarked) [Example 280, 9-(2-(6-aminopyridin-3-yl)ethyl)-2-methyl-4-phenyl-1-oxa-4,9-diazaspiro[5.5]undecan-3-one], the Ki is > 500 nM.
Regarding `COc1cccc(CN2CC3(CCN(CCc4ccccc4)CC3)OCC2=O)c1` [Example 166, 4-(3-methoxybenzyl)-9-phenethyl-1-oxa-4,9-diazaspiro[5.5]undecan-3-one hydrochloride], the Ki was < 500 nM.
Regarding `Nc1cccc(CCN2CCC3(CC2)CN(Cc2ccc(C(F)(F)F)cn2)C(=O)C2(CC2)O3)c1` [Example 239, 8-(3-aminophenethyl)-12-{[5-(trifluoromethyl)pyridin-2-yl]methyl}-4-oxa-8,12-diazadispiro[2.1.5.3]tridecan-13-one], the Ki was > 500 nM.
For the compound `CS(=O)(=O)Nc1cccc(CN2CC3(CCN(CCc4ccccc4)CC3)OCC2=O)c1` [Example 259, N-(3-((3-oxo-9-phenethyl-1-oxa-4,9-diazaspiro[5.5]undecan-4-yl)methyl)phenyl)methanesulfonamide hydrochloride], the Ki was > 500 nM.
The same measure, in the same setting: with `NC(=O)Nc1cccc(CCN2CCC3(CC2)CN(Cc2ccc(C(F)(F)F)cn2)C(=O)C2(CC2)O3)c1` [Example 263, {3-[2-(13-oxo-12-{[5-(trifluoromethyl)pyridin-2-yl]methyl}-4-oxa-8,12-diazadispiro[2.1.5.3]tridecan-8-yl)ethyl]phenyl}urea] the figure was < 500 nM.
